This note sets out measurements from US20210378995A1, “METHODS AND TOPICAL PHARMACEUTICAL COMPOSITIONS FOR THE TREATMENT OF SKIN MICROVASCULAR DYSFUNCTION” (INSERM (INSTITUT NATIONAL DE LA SANTÉ ET DE LA RECHERCHE …, priority 2018, published 2021).

SMILES strings stand for the structures.

Data set [1] in a line: Percutaneous absorption using Franz's cells on pigskin, influence of the solvent (Example 1).
Protocol: The skin of a pig's ears was chosen for the experiments as it is very similar to that of a human skin. […] The receptor compartment contained 4.5 mL of PBS and was under magnetic stirring. […] Samples were frozen at −20° C.
A short description of data set [2]: Solubility in paraffin wax vehicle. It counts as physicochemical. The settings on record: paraffin wax vehicle could not be used.
Data set [3] can be described thus: Percutaneous passage of GSK2256294 topical formulations in Franz's cells on pig ear skin (Example 5). It counts as in vitro ADME. The method, then:
First GSK2256294 topical formulations used DMSO and water 50/50% as vehicle. The experiments were conducted with Franz's cell using the skin of a pig's ear. The donor compartment was filled by an 20 μL of solution with a concentration between 100 to 400 μg/g of GSK2256294. The receptor medium was constituted by 4.5 mL of PBS, was at 32° C. and under magnetic stirring. Samples from the receptor compartment were collected at different times over 24 hours to determine the passage flow of GSK2256294. Second GSK2256294 topical formulation using alcohol, isopropanol, propylene glycol and DMSO 50/50% as vehicle with a GSK2256294's concentration at 200 μg/g were tested in the same conditions. Samples were then frozen at −20° C. The […] quantification was realized by HPLC/MS/MSS.

Setting [4] is: GSK2256294 4 μg/mL, vehicle DMSO/water 50%/50%.
The mark [5] stands for this setting: GSK2256294 40 μg/mL, 'with DMSO'.
The mark [6] stands for this setting: GSK2256294 40 μg/mL, vehicle DMSO/water 50%/50%.
[7] abbreviates: GSK2256294, vehicle water at pH3.
Setting [8] is: GSK2256294, vehicle water at pH3/alcohol 50/50%.

As to `CNc1nc(C)nc(N[C@H]2CCC[C@@H](C(=O)NCc3ccc(C#N)cc3C(F)(F)F)C2)n1` [GSK2256294, (1R,3S)—N-[[4-cyano-2-(trifluoromethyl)phenyl]methyl]-3-[[4-methyl-6-(methylamino)-1,3,5-triazin-2-yl]amino]cyclohexane-1-carboxamide], the “absorbed and released by the pigskin over 24 hrs” value in data set [1] (setting [4]) amounted to 10.5%; in data set [1] (setting [6]), 9.02%. The percutaneous absorption flow in data set [1] (setting [4]) is listed as 21.9 ng/cm^2/h; in data set [1] (setting [5]), 134.1 ng/cm^2/h; in data set [1] (setting [6]), 167.4 ng/cm^2/h; in data set [1] (GSK2256294, vehicle PEG400), “No flow”; in data set [1] (setting [7]), 167.4 ng/cm^2/h; in data set [1] (setting [8]), 38.6 ng/cm^2/h. For the same molecule, the passage rate in data set [1] (setting [5]) is 7.04%; in data set [1] (setting [7]) it was 8.31%; in data set [1] (setting [8]) it was 3.52%. The “solubility in paraffin wax” value in data set [2] is “lack of solubility”. Also, the “flow between 4 and 12 h” value in data set [3] (DMSO/water 50/50%, GSK2256294 200 μg/g) turned out to be 64.83 ng/h/cm^2; in data set [3] (DMSO/water 50/50%, lower end of GSK2256294 concentration range 100 to 400 μg/g), 41.92 ng/h/cm^2; in data set [3] (DMSO/water 50/50%, upper end of GSK2256294 concentration range 100 to 400 μg/g) it was 102.26 ng/h/cm^2; in data set [3] (alcohol/water 50/50%, GSK2256294 200 μg/g) it was 55.9 ng/h/cm^2; in data set [3] (isopropanol/water 50/50%, GSK2256294 200 μg/g), 74.38 ng/h/cm^2; in data set [3] (propylene glycol/water 50/50%, GSK2256294 200 μg/g), 48.49 ng/h/cm^2.
